The source made the active and inactive calls.
Assays:
Assay type in all cases: functional, cell-based
SF-268 = assay: Anticancer activity against human SF268 cells at 100 uM
NCI-H460 = assay: Anticancer activity against human NCI-H460 cells at 100 uM
MCF7 = assay: Anticancer activity against human MCF7 cells at 100 uM

Measured: Activity

C#CCN/C(=N/S(=O)(=O)c1cc(C)c(Cl)cc1SCC#N)NN
inactive: all assays above

C#CCN/C(=N/S(=O)(=O)c1cc(C)c(Cl)cc1S)NN
inactive: all assays above

C=CCN/C(=N/S(=O)(=O)c1cc(C(=O)Nc2ccccc2)c(Cl)cc1SCC(N)=O)NN
inactive: all assays above

C#CCN/C(=N/S(=O)(=O)c1cc(C(=O)Nc2ccccc2)c(Cl)cc1S)NN
inactive: all assays above

C=CCN/C(=N/S(=O)(=O)c1cc(C)c(Cl)cc1SC)N/N=C/c1ccc([N+](=O)[O-])o1
inactive: all assays above

C#CCN/C(=N/S(=O)(=O)c1cc(C)c(Cl)cc1SCC(N)=O)NN
inactive: all assays above

C=CCN/C(=N/S(=O)(=O)c1cc(C(=O)Nc2ccc(Cl)cc2)c(Cl)cc1SC)NN
inactive: all assays above

C#CCN/C(=N/S(=O)(=O)c1cc(C)c(Cl)cc1SCC(=O)c1ccccc1)NN
inactive: all assays above
